# Assays:
# [1] = test system: eggs of Harmonia axyridis; assay: Effect on hatching of eggs of Harmonia axyridis, egg card immersion; type: in vivo; details: 100 ppm; for Number of hatched larvae 4 days after insecticide delivery, Replicate 1 / Number of hatched larvae 4 days after insecticide delivery, Replicate 2 / Number of hatched larvae 4 days after insecticide delivery, Replicate 3: Harmonia axyridis egg cards, immersed 30 seconds; for Hatching rate (%), Replicate 1 / Hatching rate (%), Replicate 2 / Hatching rate (%), Replicate 3: Harmonia axyridis eggs, 4 days after delivery
# In short: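 Egg cards (~20 eggs each) dipped 30 s in 100 ppm insecticide, air dried and kept moist at 27° C; 5 cards per treatment, 3 replicates. Hatching assessed 4 days after treatment against pre-treatment egg counts, and control effect calculated by formula.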
# eggs of Aleyrodidae = assay: Effect on hatching of eggs of Aleyrodidae, leaf disc method; type: in vivo; details: 10 ppm; for Hatching rate (%), Replicate 1 / Hatching rate (%), Replicate 2 / Hatching rate (%), Replicate 3 / Number of hatched larvae 5 days after insecticide delivery, Replicate 1 / Number of hatched larvae 5 days after insecticide delivery, Replicate 2 / Number of hatched larvae 5 days after insecticide delivery, Replicate 3: Aleyrodidae eggs; for Hatching rate (%), Replicate 1 / Hatching rate (%), Replicate 2 / Hatching rate (%), Replicate 3: 5 days after delivery; for Number of hatched larvae 5 days after insecticide delivery, Replicate 1 / Number of hatched larvae 5 days after insecticide delivery, Replicate 2 / Number of hatched larvae 5 days after insecticide delivery, Replicate 3: leaf disc
# In short: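 Inhibition of Aleyrodidae egg hatching was tested with a leaf disc method at 10 ppm. Egg numbers on each disc were counted under a microscope before treatment. Discs bearing eggs were soaked for 10 seconds in clear water or test solution, removed, and kept under moist conditions. Hatching was checked five days after insecticide delivery and hatched larvae were counted.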
# Magnaporthe grisea = type: cell-based; details: 100 ppm; for Average antifungal rate (%) / Antifungal rate of Magnaporthe grisea (%), Replicate 1 / Antifungal rate of Magnaporthe grisea (%), Replicate 2 / Antifungal rate of Magnaporthe grisea (%), Replicate 3: 96-well plate; for Average antifungal rate (%): average of 3 replicates
# [2] = test system: pest eggs of Tetranychus cinnabarinus; assay: Effect on hatching of pest eggs of Tetranychus cinnabarinus, leaf disc method; type: in vivo; details: for inhibitory effect on the hatching of pest eggs of Tetranychus cinnabarinus (in words): 1 ppm; for Hatching rate (%): 7 days after insecticide delivery
# In short: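 Adult female mites laid eggs on 2.0 cm Vicia faba leaf discs for up to 36 h; discs with counted eggs were dipped 10 s in compound solution or water, then kept moist. Hatched eggs were counted 7 days after treatment and control effect was calculated by formula.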
Structure (SMILES),inhibitory activity on the hatching of eggs of Harmonia axyridis (in words) [1],inhibitory activity on the hatching of eggs of Aleyrodidae (in words) (eggs of Aleyrodidae),inhibitory rate against Magnaporthe grisea (in words) (Magnaporthe grisea),Average antifungal rate (%) (Magnaporthe grisea),"Antifungal rate of Magnaporthe grisea (%), Replicate 1 (Magnaporthe grisea) [%]","Antifungal rate of Magnaporthe grisea (%), Replicate 2 (Magnaporthe grisea) [%]","Antifungal rate of Magnaporthe grisea (%), Replicate 3 (Magnaporthe grisea) [%]","Number of hatched larvae 7 days after insecticide delivery ([2]; 0.5 mg/L, Replicate 1)",inhibitory effect on the hatching of pest eggs of Tetranychus cinnabarinus (in words) [2],"Hatching rate (%) ([2]; 0.25 mg/L, Replicate 1)","Hatching rate (%) ([2]; 0.25 mg/L, Replicate 2)","Number of hatched larvae 7 days after insecticide delivery ([2]; 0.25 mg/L, Replicate 1)","Number of hatched larvae 7 days after insecticide delivery ([2]; 0.25 mg/L, Replicate 2)","Hatching rate (%) ([2]; 0.5 mg/L, Replicate 1)","Hatching rate (%) ([2]; 0.5 mg/L, Replicate 2)","Number of hatched larvae 7 days after insecticide delivery ([2]; 0.5 mg/L, Replicate 2)","Hatching rate (%) ([2]; 1 mg/L, Replicate 1)","Hatching rate (%) ([2]; 1 mg/L, Replicate 2)","Number of hatched larvae 7 days after insecticide delivery ([2]; 1 mg/L, Replicate 1)","Number of hatched larvae 7 days after insecticide delivery ([2]; 1 mg/L, Replicate 2)",further results
CC(C)(COS(=O)OCCF)Oc1ccc(Cl)cc1Cl (stereo not drawn) [Compound 10′],strong inhibitory activities,strong inhibitory activities,strong inhibitory rate,94.31,94.01,95.16,93.77,47,excellent inhibitory effects,–,–,–,–,–,–,–,–,–,–,–,"Number of hatched larvae 4 days after insecticide delivery, Replicate 1 [1]: 5; Number of hatched larvae 4 days after insecticide delivery, Replicate 2 [1]: 5; Number of hatched larvae 4 days after insecticide delivery, Replicate 3 [1]: 6; Hatching rate (%), Replicate 1 [1]: 5.75%; Hatching rate (%), Replicate 2 [1]: 5.26%; Hatching rate (%), Replicate 3 [1]: 4.92%; Hatching rate (%), Replicate 1 (eggs of Aleyrodidae): 2.02%; Hatching rate (%), Replicate 2 (eggs of Aleyrodidae): 0.97%; Hatching rate (%), Replicate 3 (eggs of Aleyrodidae): 1.05%; Number of hatched larvae 5 days after insecticide delivery, Replicate 1 (eggs of Aleyrodidae): 2; Number of hatched larvae 5 days after insecticide delivery, Replicate 2 (eggs of Aleyrodidae): 1; Number of hatched larvae 5 days after insecticide delivery, Replicate 3 (eggs of Aleyrodidae): 1"
CC(C)(COc1ccc(Cl)cc1Cl)OS(=O)OCCF (stereo not drawn) [Compound R-10],–,–,strong inhibitory rate,82.52,81.97,83.68,81.92,28,–,73.21,74.03,15,20,42.67,41.94,36,8.11,6.25,68,60,"Number of hatched larvae 4 days after insecticide delivery, Replicate 1 [1]: 15; Number of hatched larvae 4 days after insecticide delivery, Replicate 2 [1]: 10; Number of hatched larvae 4 days after insecticide delivery, Replicate 3 [1]: 13; Hatching rate (%), Replicate 1 [1]: 12.00%; Hatching rate (%), Replicate 2 [1]: 11.90%; Hatching rate (%), Replicate 3 [1]: 12.87%; Hatching rate (%), Replicate 1 (eggs of Aleyrodidae): 9.79%; Hatching rate (%), Replicate 2 (eggs of Aleyrodidae): 9.42%; Hatching rate (%), Replicate 3 (eggs of Aleyrodidae): 9.92%; Number of hatched larvae 5 days after insecticide delivery, Replicate 1 (eggs of Aleyrodidae): 14; Number of hatched larvae 5 days after insecticide delivery, Replicate 2 (eggs of Aleyrodidae): 13; Number of hatched larvae 5 days after insecticide delivery, Replicate 3 (eggs of Aleyrodidae): 12"
"CC[C@@H](COS(=O)OCCF)Oc1ccc(Cl)cc1Cl (stereo partly drawn) [19′-(S,S)]",strong inhibitory activities,strong inhibitory activities,strong inhibitory rate,97.09,97.41,96.58,97.29,66,excellent inhibitory effects,40.82,39.73,29,44,5.71,3.57,54,0.00,0.00,56,49,"Number of hatched larvae 4 days after insecticide delivery, Replicate 1 ([1]; listed as 19′-(S, S)): 0; Number of hatched larvae 4 days after insecticide delivery, Replicate 2 ([1]; listed as 19′-(S, S)): 0; Number of hatched larvae 4 days after insecticide delivery, Replicate 3 ([1]; listed as 19′-(S, S)): 0; Hatching rate (%), Replicate 1 ([1]; listed as 19′-(S, S)): 0.00%; Hatching rate (%), Replicate 2 ([1]; listed as 19′-(S, S)): 0.00%; Hatching rate (%), Replicate 3 ([1]; listed as 19′-(S, S)): 0.00%; Hatching rate (%), Replicate 1 (eggs of Aleyrodidae; listed as 19′-(S, S)): 0.00%; Hatching rate (%), Replicate 2 (eggs of Aleyrodidae; listed as 19′-(S, S)): 0.00%; Hatching rate (%), Replicate 3 (eggs of Aleyrodidae; listed as 19′-(S, S)): 0.00%; Number of hatched larvae 5 days after insecticide delivery, Replicate 1 (eggs of Aleyrodidae; listed as 19′-(S, S)): 0; Number of hatched larvae 5 days after insecticide delivery, Replicate 2 (eggs of Aleyrodidae; listed as 19′-(S, S)): 0; Number of hatched larvae 5 days after insecticide delivery, Replicate 3 (eggs of Aleyrodidae; listed as 19′-(S, S)): 0"
"C[C@H](COS(=O)OCCF)Oc1ccc(Cl)cc1Cl (stereo partly drawn) [1-(R,R)]",strong inhibitory activities,strong inhibitory activities,strong inhibitory rate,98.96,99.41,99.12,98.34,45,excellent inhibitory effects,45.45,45.10,36,28,4.26,5.56,68,0.00,0.00,56,62,"Number of hatched larvae 4 days after insecticide delivery, Replicate 1 ([1]; listed as 1-(R, R)): 0; Number of hatched larvae 4 days after insecticide delivery, Replicate 2 ([1]; listed as 1-(R, R)): 0; Number of hatched larvae 4 days after insecticide delivery, Replicate 3 ([1]; listed as 1-(R, R)): 0; Hatching rate (%), Replicate 1 ([1]; listed as 1-(R, R)): 0.00%; Hatching rate (%), Replicate 2 ([1]; listed as 1-(R, R)): 0.00%; Hatching rate (%), Replicate 3 ([1]; listed as 1-(R, R)): 0.00%; Hatching rate (%), Replicate 1 (eggs of Aleyrodidae; listed as 1-(R, R)): 0.00%; Hatching rate (%), Replicate 2 (eggs of Aleyrodidae; listed as 1-(R, R)): 0.00%; Hatching rate (%), Replicate 3 (eggs of Aleyrodidae; listed as 1-(R, R)): 0.00%; Number of hatched larvae 5 days after insecticide delivery, Replicate 1 (eggs of Aleyrodidae; listed as 1-(R, R)): 0; Number of hatched larvae 5 days after insecticide delivery, Replicate 2 (eggs of Aleyrodidae; listed as 1-(R, R)): 0; Number of hatched larvae 5 days after insecticide delivery, Replicate 3 (eggs of Aleyrodidae; listed as 1-(R, R)): 0"

# From US20260184675A1, “CHIRAL ISOMERIC SULFITE COMPOUND AND APPLICATION THEREOF” (Chengdu Hanova BioSciences Co., Ltd, priority 2024, published 2026)
